In patent US20100204108A1, “USE OF NEUROTROPHIC FACTOR FOR RETINAL CHOLINERGIC NEURONS (NFRCN) AND CHORIONIC GONADOTROPIN-BETA (109-145) AS THERAPEUTIC AGENTS” (priority 2007, published 2010):
Ends that are not written are not given here.

Tests used:
HIV-1IIIB = details: positive controls
[1] = system: hepatitis B virus (HBV) ayw strain; assay: HBV assay in HepG2-2.2.15 cells, secreted HBV DNA by TaqMan PCR; assay type: cell-based; details: 10 micrograms per ml, six days, HBV DNA in supernatant
[2] = system: Th1/Th2 cytokines in spleen cells; assay: Th1/Th2 cytokine profiling assay (Ovalbumin-restimulated spleen cells, CBA kit); assay type: cell-based, Balb/c mice; details: 10 micrograms per ml; Ovalbumin restimulation; 72 hours
[3] = system: LPS-induced TNF-alpha production in human macrophages; assay: TNF alpha production assay (LPS-stimulated macrophages, ELISA); assay type: cell-based; details: 10 micrograms per ml; LPS 200 ng/ml; overnight
Description: Not stimulated macrophages served as negative background control.

HUVEC = assay: Endothelial tube formation assay; assay type: cell-based, human; details: 10 micrograms per ml, 20 hours
Description: Positive control was vehicle only.

HCMV strain AD169 = assay: HCMV plaque formation assay in MRC-5 cells; details: 10 micrograms per ml, 7-10 days

Molecule | antiviral activity of positive control compounds (HIV-1) (HIV-1IIIB) | inhibition of HBV replication as compared to the virus control infection [1] [%] | IFNγ spleen cells; TH1 response (% of control) [2] | IL-2 spleen cells (% of control) [2] | IL-4 spleen cells; TH2 response (% of control) [2] | IL-5 spleen cells; TH2 response (% of control) [2] | TNF-a spleen cells; TH1 response (% of control) [2] | induction of the LPS-induced TNF-alpha production in human macrophages [3] [%] | inhibition of the tube formation of endothelial cells (HUVEC) [%] | inhibition of HCMV plaque formation as compared to the virus control (HCMV strain AD169)
Cc1cn([C@H]2C[C@H](N=[N+]=[N-])[C@@H](CO)O2)c(=O)[nH]c1=O [AZT] | expected levels of antiviral activity | – | – | – | – | – | – | – | – | –
CC(C)(C)NC(=O)[C@@H]1CN(Cc2cccnc2)CCN1C[C@@H](O)C[C@@H](Cc1ccccc1)C(=O)N[C@H]1c2ccccc2C[C@H]1O [indinavir] | expected levels of antiviral activity | – | – | – | – | – | – | – | – | –
Tyr-Leu-Leu-Pro-Ala-Gln-Val-Asn-Ile-Asp-OH (YLLPAQVNID-OH) [peptide 1] | – | 65.0 | 135.2 % of control | 215.4 % of control | 138.4 % of control | 111.1 % of control | 165.0 % of control | 18 | 25 | did not inhibit
